Measurements from patent US10239887B2, “Positive allosteric modulators of the muscarinic acetylcholine receptor M4” (Vanderbilt University, priority 2016, dated 2019).
Where a name gives a salt, the structure may show the parent alone.

Molecular target: T1, human mAChR M4 (Homo sapiens, UniProt P08173)
T1 sequence (P08173 1-479): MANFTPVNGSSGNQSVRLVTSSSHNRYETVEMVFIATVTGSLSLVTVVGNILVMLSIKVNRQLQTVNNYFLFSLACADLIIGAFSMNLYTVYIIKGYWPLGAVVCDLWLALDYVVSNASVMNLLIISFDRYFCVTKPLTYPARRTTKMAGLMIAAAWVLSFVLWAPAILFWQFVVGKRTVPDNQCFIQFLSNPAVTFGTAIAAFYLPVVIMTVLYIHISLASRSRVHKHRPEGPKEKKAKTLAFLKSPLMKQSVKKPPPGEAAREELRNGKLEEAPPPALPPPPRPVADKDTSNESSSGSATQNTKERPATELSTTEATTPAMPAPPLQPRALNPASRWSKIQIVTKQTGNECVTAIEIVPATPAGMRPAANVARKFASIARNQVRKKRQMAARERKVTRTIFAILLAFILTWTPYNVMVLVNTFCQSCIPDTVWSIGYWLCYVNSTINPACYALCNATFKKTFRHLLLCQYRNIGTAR
Assay: mAChR M4 cell-based functional assay (calcium flux), human M4
Details: Table 10; for EC50: Human M4 EC50 (nM); for Emax: % ACh maximum at 30 μM

[1] = calcium flux, PAM activity with EC20 acetylcholine

SMILES	EC50 [1] [nM]	Emax [%]	EC50 (unit μM (bounds)) [nM]
Cc1nc2oc3c(NC4CN(c5ncc(C(F)(F)F)cn5)C4)ncnc3c2c(C)c1Cl [Compound 241, 8-chloro-7,9-dimethyl-N-[1-[5-(trifluoromethyl)pyrimidin-2-yl]yl]azetidin-3-yl]pyrido [3′,2′:4,5]furo[3,2-d] pyrimidin-4-amine hydrochloride]	1010	39.7	
Cc1nc2oc3c(NC4CC4c4ccc(F)c(F)c4)ncnc3c2c(C)c1Cl (stereo not shown) [Compound 247, 8-chloro-N-[2-(3,4-difluorophenyl)cyclopropyl]-7,9-dimethyl-pyrido [3′,2′:4,5]furo[3,2-d] pyrimidin-4-amine hydrochloride]	7840	70	
Cc1nc2oc3c(NCc4ccc(S(C)(=O)=O)cc4)ncnc3c2c(C)c1Cl [Compound 248, 8-chloro-7,9-dimethyl-N-[(4-methylsulfonylphenyl)methyl]pyrido[3′,2′:4,5] furo[3,2-d]pyrimidin-4-amine hydrochloride]	1250	45.5	
Cc1nc2oc3c(NCc4ccc(C(C)(C)O)cc4)ncnc3c2c(C)c1Cl [Compound 251, 2-[4-[[(8-chloro-7,9-dimethyl-pyrido [3′,2′:4,5]furo[3,2-d]pyrimidin-4-yl)amino]methyl]phenyl]propan-2-ol]	1160	61.8	
COc1ccc(CNc2ncnc3c2oc2nc(C)c(Cl)c(C)c23)cc1F [Compound 253, 8-chloro-N-[(3-fluoro-4-methoxy-phenyl)methyl]-7,9-dimethyl-pyrido [3′,2′:4,5]furo[3,2-d] pyrimidin-4-amine hydrochloride]		41.9	> 10000
Cc1nc2sc3c(N4CCC(F)(F)C4)ncnc3c2c(C)c1Cl [Compound 255, 8-chloro-4-(3,3-difluoropyrrolidin-1-yl)-7,9-dimethyl-pyrido [3′,2′:4,5]thieno[3,2-d] pyrimidine hydrochloride]	2340	73	

Now from value to molecule:

EC50 [1] [nM]	Emax [%]	EC50 (unit μM (bounds)) [nM]	SMILES
1010	64.4		Cc1nc2sc3c(N4CC5CC5C4)ncnc3c2c(C)c1Cl (stereo not shown) [Compound 257, 4-(3-azabicyclo[3.1.0]hexan-3-yl)-8-chloro-7,9-dimethyl-pyrido [3′,2′:4,5]thieno[3,2-d] pyrimidine hydrochloride]
1510	64.9		Cc1nc2sc3c(N4CCC(F)C4)ncnc3c2c(C)c1Cl (stereo not shown) [Compound 258, 8-chloro-4-(3-fluoropyrrolidin-1-yl)-7,9-dimethyl-pyrido [3′,2′:4,5]thieno[3,2-d] pyrimidine hydrochloride]
	70.9		Cc1nc2sc3c(N4CC5(COC5)C4)ncnc3c2c(C)c1Cl [Compound 260, 6-(8-chloro-7,9-dimethyl-pyrido [3′,2′:4,5]thieno[3,2-d]pyrimidin-4-yl)-2-oxa-6-azaspiro[3.3]heptane hydrochloride]
3920	76.2		Cc1nc2sc3c(N4CC(F)(F)C4)ncnc3c2c(C)c1Cl [Compound 261, 8-chloro-4-(3,3-difluoroazetidin-1-yl)-7,9-dimethyl-pyrido [3′,2′:4,5]thieno[3,2-d] pyrimidine hydrochloride]
1520	83.8		Cc1nc2sc3c(N4CC(c5ccncc5)C4)ncnc3c2c(C)c1Cl [Compound 262, 8-chloro-7,9-dimethyl-4-[3-(4-pyridyl)azetidin-1-yl]pyrido[3′,2′:4,5] thieno[3,2-d]pyrimidine dihydrochloride]
9520	72.6		Cc1nc2sc3c(NC4CN(c5ncc(F)cn5)C4)ncnc3c2c(C)c1Cl [Compound 263, 8-chloro-N-[1-(5-fluoropyrimidin-2-yl)azetidin-3-yl]-7,9-dimethyl-pyrido[3′,2′:4,5] thieno[3,2-d]pyrimidin-4-amine hydrochloride]
1660	55.5		Cc1nc2sc3c(NC4CCC4)ncnc3c2c(C)c1Cl [Compound 266, 8-chloro-N-cyclobutyl-7,9-dimethyl-pyrido [3′,2′:4,5]thieno[3,2-d] pyrimidin-4-amine hydrochloride]
